Reference: patent US20060100264A1, “3,3'-Diindolylmethane immune activating compositions” (priority 2004, published 2006)

Legend:
[1] = tested on: STAT1; experiment: STAT1 phosphorylation (Tyr-701) by Western blot; assay type: cell-based, human; settings: DIM 6 or 24 h, with or without 15 min IFNγ exposure
Excerpt: To acsertain the role of GAS element activation in transcriptional activation by DIM, we examined the effect of this indole on downstream events in the GAS signaling pathway. For this purpose, the effects of DIM on phosphorylation of the signal transduction and activator of transcription factor 1 (STAT1), and the binding of the activated STAT1 dimer to the cognate GAS responsive element were examined. Phosphorylation of STAT1 by Janus-activated kinase (JAK) is the first step in IFNγ signaling following binding to IFNGR1. For these studies, cells were pretreated with DIM for 6 or 24 h followed by a 15 min. exposure to IFNγ. STAT1 phosphorylation levels in cell lysates of DIM-treated cells were compared to controls that received IFNγ but had not been treated with DIM. Phosphorylation was measured by Western blot analysis using an antibody specific to STAT1 phosphorylated on Tyr-701 residue.

[2] = tested on: GAS element; experiment: Electrophoretic gel mobility shift assay, STAT1 binding to GAS element; assay type: cell-based, human; settings: DIM pretreatment for various times, IFNγ 30 min
Experimental: An electrophoretic gel mobility shift assay was used to verify that the phosphorylated STAT1 was effectively activated to a dimer that could bind to the GAS element. The ^32P-labeled DNA probe containing a GAS sequence was incubated with nuclear extracts from cells pretreated with DIM for various times as indicated, and with IFNγ for 30 min. […] When samples were incubated with an antibody specific to STAT1, the band was super-shifted, confirming the identity of the protein binding to the labeled GAS probe.

[3] = tested on: MCF-7 cells; experiment: Cell proliferation over a 4-day treatment period; assay type: cell-based, human; settings: 4-day treatment, heat-treated serum
Experimental: Functional consequences of the synergistic effects of DIM and IFNγ on gene expression were examined at the level of proliferation rates. Cell proliferation was measured over a 4-day treatment period with treatments with DIM, IFNγ, or both substances, and compared to a DMSO control. With heat-treated serum, IFNγ alone reduced cell proliferation by as much as 70% compared to controls. DIM treatments reduced proliferation by as much as 60%. […] These effects were accompanied by morphological changes characteristic of apoptosis.

[4] = tested on: 4GAS-Luc reporter (four repeats of the consensus GAS element); experiment: 4GAS-Luc luciferase reporter in transiently transfected MCF-7 cells; assay type: cell-based, human; settings: DIM 50 μM, IFNγ concentration dependent, maximum
Experimental: In a further experiment to examine whether the inducing effects of DIM are at the transcriptional level, the effect of DIM on activities of two luciferase reporter constructs, OAS-Luc (12) and 4GAS-Luc (13) was examined. OAS-Luc contains the promoter and 5′-flanking region (−972) of p69-OAS and GAS-Luc contains four repeats of the consensus GAS element. MCF-7 cells transiently transfected with these reporter constructs were treated with IFNγ, DIM, or a combination of both for 24 h. […] IFNγ induced transcriptional activity of this reporter in a concentration dependent manner to a maximum of about 1.8 fold, which is less than the response of the endogenous gene of about 5.0 fold. In marked contrast to the maximum effects of combined treatments of the inducers on endogenous gene expression (nearly 12-fold increase compared to vehicle treated cells), the reporter gene construct responded with less than a 3-fold increase over the controls.
Thus, treatment with DIM (50 μM) by itself again produced a 2 to 3-fold increase in activity of this reporter. IFNγ treatments, however, produced a robust concentration dependent increase in reporter activity to approximately 40-fold induction compared to vehicle treated controls. […]

[5] = tested on: IL-6; experiment: Serum IL-6 by ELISA in mice after DIM; assay type: in vivo; settings: 30 μg/kg DIM orally
Experimental: We firstly investigated the effect of unsubstituted DIM on the production of IL-6, G-CSF, IL-12, TNF-α and IFNγ. A groups of 3 mice was given 30 μg/kg of unsubstituted DIM orally and then sacrificed at 1, 3, 5, 8, and 24 h after drug challenge. Serum was collected, pooled, and assayed for IL-6, G-CSF, IL-12 and TNF-α by ELISA. […] DIM produced an increase in circulating levels of G-CSF and TNF-α with the 3 h time point being maximal. […] DIM also stimulated IL-12 and kinetics were slightly different since the increased levels were sustained for at least 24 h.

[6] = tested on: MHC-I complex; experiment: Flow cytometry of cell surface MHC-I expression (FITC-conjugated HLA-ABC antibody); assay type: cell-based, human; settings: no IFNγ
Experimental: Induced expression of the MHC-I complex is a well-established and important down-stream target of IFNγ-mediated signal transduction. To examine further the possible synergistic effects of DIM on a significant metabolic product of IFNγ signaling, we tested the effects of co-treatment with DIM on IFNγ induced expression of MHC-I complex in MCF-7 cells.
Flow cytometry analysis of cell surface MHC-I expression was conducted using FITC-conjugated HLA-ABC antibody. In an initial control experiment, cultured MCF-7 cells were pre-treated with 30 μM DIM for 48 hours and then with or without 10 ng/mL IFNγ for another 16 hours. […] In a subsequent experiment in which cells were treated with a range of IFNγ concentrations and analyzed with the anti-MHC-I antibody, a strong signal indicative of IFNγ-induced MHC-I expression was detectable at 0.1 ng/mL and appeared to plateau at 10 ng/mL. In cells treated with vehicle control only, MHC-I expression was not detected in greater than 99% of cells.
Exposure to DIM of cells treated with 10 ng/mL of IFNγ, about 95% of which expressed MHC-I, produced a strong time dependent increase in MFV from 76.04 to 131.41. […] As expected, addition of an IFNγ blocking antibody into the medium before the treatments abrogated the inducing effects of co-treatments of IFNγ and DIM on MHC-I expression, confirming the requirement of the cytokine for the observed effects.

[7] = tested on: IL-6, G-CSF, IL-12, TNF-α and IFNγ; experiment: Serum levels of cytokines in mice; assay type: in vivo

Structure (SMILES): c1ccc2c(Cc3c[nH]c4ccccc34)c[nH]c2c1 [DIM, 3,3′-Diindolylmethane]
- STAT1 phosphorylation (Tyr-701) [1]: did not induce STAT1 phosphorylation
- Band-shift of 32P-labeled GAS probe with nuclear extracts [2]: did not produce a shifted band
- Reduction of cell proliferation compared to controls [3]: ≤ 60%
- Induction of 4GAS-Luc reporter activity compared to vehicle treated controls [4]: 2 to 3 fold
- Time of peak IL-6 induction [5]: 5 h
- Expression of the MHC-I complex, DIM treatment alone [6]: no significant effect
- Cytokine production, including IFNγ ([7]; intravenous administration): elevated cytokine production
- Serum levels of cytokines ([7]; oral, 1-24 h after challenge): stimulated a time-dependent increase in serum levels of cytokines
